Test results reported in patent publication US20080113900A1, “Pharmaceutical compositions and therapeutic applications for the use of a synthetic vitamin B12 derivative, glutathionylcobalamin” (priority 2006, published 2008).
“And” between values parts separate entries of the source, which are not always exact repeats. Identical values can stand only once.

Tests used:
SK-HEP-1 cells = assay: Protection of endothelial cells from homocysteine-induced cell death (MTS assay); assay type: cell-based, human; details: for Mean (FIG. 14a, protection of SK-HEP-1 cells from Hcy in the presence of folate): folate 25 μM present, [GSCbl] = 15 μM, [CNCbl] = 15 μM, [MeCbl] = 12.5 μM, [HOCbl] = 17.5 μM, [GSH] = 100 μM; for Absorbance at 490 nm: single replicates Y1-Y6
Description: The effect of a constant concentration of NACCbl and GSCbl to protect cells against variable concentrations of homocysteine was assessed. […] Cell viability was determined by MTS® assay. Data shown in FIG. 4 are representative of means ±SE of 6 independent samples. FIG. 4 illustrates that NACCbl (▪) and GSCbl (▴) protect endothelial cells from the effect of homocysteine. […] Cell viability was determined by MTS® assay. […] There was a decrease in protection as homocysteine concentration increased, but there was still ˜60% survival at 50 μM homocysteine.
The data was normalized (log 2 and log 10) as shown in FIGS. 16 and 17 and Tables 16 and 17, respectively, below.

[1] = Decomposition in PBS at 37° C. monitored by UV/Vis spectrophotometry; assay type: physicochemical
Description: The decomposition of GSCbl, NACCbl, and HcyCbl in PBS at 37° C. was monitored by UV/Vis spectrophotometry.

Hsp32 = Hsp32 gene expression (RT-PCR, densitometry); assay type: cell-based, human; details: SK-HEP-1; Sn (IX) protoporphyrin 25 μM; Quercitin 15 μM
Hsp70 = Hsp70 gene expression (RT-PCR, densitometry); details: SK-HEP-1; Quercitin 15 μM
Description: Cells were plated into 6-, 12-, or 24-well cell culture clusters, at 2×10^3, 2×10^5, or 1×10^5 cells per well and incubated until 90% confluent. Treatments were applied as above.
Following incubation, cells were subjected to mRNA extraction followed by cDNA synthesis for each sample under test. Polymerase chain reaction cDNA templates were prepared for simplex PCR protocol. PCR products were then visualized using a UV Transilluminator and images captured using a Kodak ID gel imaging system. Densitometry and statistical analysis was then performed on each gene expression band image using PSP® v 10.0 running under Windows XP®.
mRNA extraction was performed using the Quickprep micro mRNA Purification Kit. Following incubation of cells post-treatment, the media was removed from the cells, adherent cells were re-suspended in 0.4 ml extraction buffer and 0.8 ml elution buffer at 65° C. was added.
A reaction mixture was prepared in individual microcentrifuge tubes containing 2 cDNA synthesis beads, 32 μl of the mRNA solution and 1 μl of pd(N)6. This mixture was incubated at 37° C. in a water bath for 60 minutes. After incubation, 27 μl of RNase-free DEPC treated water was added to each tube to make a total volume 60 μl. cDNA samples were prepared in duplicate. Sample 1 was used immediately in RT-PCR protocol.
Microcentrifuge tubes from puReTaq™Ready-To-Go™ PCR Beads containing one PCR bead were labeled for each sample required. Added to the PCR bead were 17 μl of RNase-free DEPC treated water, 1 μl sense primer, 1 μl anti-sense primer and 5 μl of the cDNA solution. RT-PCR conditions were as follows: Hsp70 and β-actin, pre-treatment step, 94° C. for 1 minute, followed by denaturing at 92° C. for 1 minute, annealing at 60° C. for 1 minute and extension at 72° C. for 1 minute. Total cycles, 30, post-treatment was then carried out at 72° C. for 10 minutes. For Hsp32, pre-treatment step, 95° C. for 2 minutes, followed by denaturing at 94° C. for 30 seconds, annealing at 58° C. for 1 minute and extension at 72° C. for 1 minute. […]

[2] = [Hcy] 30 μM, [NACCbl] = 12.5 μM, [NAC] = 45 μM
[3] = Conc. Hcy 0.000, NACCbl 30 μM, NAC 75 μM, n = 6
[4] = Conc. Hcy 1.780, NACCbl 30 μM, NAC 75 μM, n = 6
[5] = Conc. Hcy 3.125, NACCbl 30 μM, NAC 75 μM, n = 6
[6] = Conc. Hcy 6.250, NACCbl 30 μM, NAC 75 μM, n = 6
[7] = Conc. Hcy 12.500, NACCbl 30 μM, NAC 75 μM, n = 6
[8] = Conc. Hcy 25.000, NACCbl 30 μM, NAC 75 μM, n = 6
[9] = Conc. Hcy 50.000, NACCbl 30 μM, NAC 75 μM, n = 6
[10] = Conc. Hcy 100.000, NACCbl 30 μM, NAC 75 μM, n = 6
[11] = Conc. Hcy 200.000, NACCbl 30 μM, NAC 75 μM, n = 6

## N[C@@H](CCC(=O)N[C@@H](CS)C(=O)NCC(=O)O)C(=O)O [GSH, γ-L-Glutamyl-L-cysteinyl-glycine, reference compound]
SK-HEP-1 cells; [2]
  Mean (FIG. 14a, protection of SK-HEP-1 cells from Hcy in the presence of folate): 1.409

## C/C1=C2/[N-][C@H]([C@H](CC(N)=O)[C@@]2(C)CCC(=O)NC[C@@H](C)OP(=O)([O-])O[C@H]2[C@@H](O)[C@@H](n3cnc4cc(C)c(C)cc43)O[C@@H]2CO)[C@]2(C)N=C(/C(C)=C3N=C(/C=C4N=C1[C@@H](CCC(N)=O)C\4(C)C)[C@@H](CCC(N)=O)[C@]\3(C)CC(N)=O)[C@@H](CCC(N)=O)[C@]2(C)CC(N)=O.[Co+3].[OH-] [HOCbl, Hydroxocobalamin, reference compound]
SK-HEP-1 cells; [2]
  Mean (FIG. 14a, protection of SK-HEP-1 cells from Hcy in the presence of folate): 0.9498

## CC1=C2N=C(C=C3N=C(C(C)=C4[N-]C(C(CC(N)=O)C4(C)CCC(=O)NCC(C)OP(=O)([O-])OC4C(CO)OC(n5cnc6cc(C)c(C)cc65)C4O)C4(C)N=C1C(CCC(N)=O)C4(C)CC(N)=O)C(CCC(N)=O)C3(C)C)C(CCC(N)=O)C2(C)CC(N)=O.NC(CC[S-])C(=O)O.[Co+3] [HcyCbl, D,L-homocysteinyl-cobalamin]
[1]
  Kobs: 0.0018 min⁻¹
  t1/2: 6.6 h

## C/C1=C2/[N-][C@H]([C@H](CC(N)=O)[C@@]2(C)CCC(=O)NC[C@H](C)OP(=O)([O-])O[C@H]2[C@@H](O)[C@@H](n3cnc4cc(C)c(C)cc43)O[C@@H]2CO)[C@]2(C)N=C(/C(C)=C3N=C(/C=C4N=C1[C@@H](CCC(N)=O)C\4(C)C)[C@@H](CCC(N)=O)[C@]\3(C)CC(N)=O)[C@@H](CCC(N)=O)[C@]2(C)CC(N)=O.[CH3-].[Co+3] [MeCbl, Methylcobalamin, reference compound]
SK-HEP-1 cells; [2]
  Mean (FIG. 14a, protection of SK-HEP-1 cells from Hcy in the presence of folate): 1.322

## CC(=O)N[C@@H](CS)C(=O)O [NAC, N-Acetyl-L-Cysteine, reference compound]
SK-HEP-1 cells; [3]
  Normalized Data Log 2, Mean: 84.288
  Normalized Data Log 10, Mean: 100.000
SK-HEP-1 cells; [4]
  Normalized Data Log 2, Mean: 69.880
  Normalized Data Log 10, Mean: 83.752
SK-HEP-1 cells; [5]
  Normalized Data Log 2, Mean: 60.687
  Normalized Data Log 10, Mean: 73.385
SK-HEP-1 cells; [6]
  Normalized Data Log 2, Mean: 58.837
  Normalized Data Log 10, Mean: 71.298
SK-HEP-1 cells; [7]
  Normalized Data Log 2, Mean: 45.397
  Normalized Data Log 10, Mean: 56.141
SK-HEP-1 cells; [8]
  Normalized Data Log 2, Mean: 41.900
  Normalized Data Log 10, Mean: 52.198
SK-HEP-1 cells; [9]
  Normalized Data Log 2, Mean: 24.035
  Normalized Data Log 10, Mean: 32.051
SK-HEP-1 cells; [10]
  Normalized Data Log 2, Mean: 13.738
  Normalized Data Log 10, Mean: 20.439
SK-HEP-1 cells; [11]
  Normalized Data Log 2, Mean: 11.135
  Normalized Data Log 10, Mean: 17.503
SK-HEP-1 cells; Conc. of Hcy 0.000, NACCbl 30 μM, NAC 75 μM
  Absorbance at 490 nm: 2.592 and 2.476 and 2.437 and 2.678 and 2.336 and 2.447
SK-HEP-1 cells; Conc. of Hcy 1.780, NACCbl 30 μM, NAC 75 μM
  Absorbance at 490 nm: 2.225 and 1.903 and 1.947 and 2.310 and 2.187 and 2.206
SK-HEP-1 cells; Conc. of Hcy 3.725, NAC 75 μM
  Absorbance at 490 nm: 1.890 and 2.003 and 1.784 and 1.946 and 1.958 and 1.801
SK-HEP-1 cells; Conc. of Hcy 6.250, NACCbl 30 μM, NAC 75 μM
  Absorbance at 490 nm: 1.678 and 1.789 and 1.897 and 1.899 and 1.933 and 1.905
SK-HEP-1 cells; Conc. of Hcy 12.500, NACCbl 30 μM, NAC 75 μM
  Absorbance at 490 nm: 1.675 and 1.232 and 1.339 and 1.590 and 1.602 and 1.622
SK-HEP-1 cells; Conc. of Hcy 25.000, NACCbl 30 μM, NAC 75 μM
  Absorbance at 490 nm: 1.345 and 1.501 and 1.632 and 1.378 and 1.226 and 1.447
SK-HEP-1 cells; Conc. of Hcy 50.000, NACCbl 30 μM, NAC 75 μM
  Absorbance at 490 nm: 0.890 and 0.821 and 1.034 and 1.227 and 0.799 and 1.045
SK-HEP-1 cells; Conc. of Hcy 100.000, NACCbl 30 μM, NAC 75 μM
  Absorbance at 490 nm: 0.789 and 0.842 and 0.743 and 0.589 and 0.490 and 0.799
SK-HEP-1 cells; Conc. of Hcy 200.000, NACCbl 30 μM, NAC 75 μM
  Absorbance at 490 nm: 0.567 and 0.668 and 0.623 and 0.490 and 0.721 and 0.788
SK-HEP-1 cells; SK-HEP-1, NACCbl 30 μM, NAC 75 μM, Hcy conc. 200.000, n = 6, label Hcy = Hcy alone
  Absorbance at 490 nm, Mean: 0.643
SK-HEP-1 cells; [Hcy] 30 μM, [NAC] = 45 μM, [NACCbl] = 12.5 μM, [Folate] = 25 μM where named in the label, label Hcy/HCy = Hcy alone
  Mean (FIG. 14, protection of SK-HEP-1 cells from Hcy): 1.296
SK-HEP-1 cells; [2]
  Mean (FIG. 14a, protection of SK-HEP-1 cells from Hcy in the presence of folate): 1.438
SK-HEP-1 cells; as E80, Hcy conc. 0.000
  Absorbance at 490 nm, Mean: 2.494
SK-HEP-1 cells; as E80, Hcy conc. 1.780
  Absorbance at 490 nm, Mean: 2.130
SK-HEP-1 cells; as E80, Hcy conc. 3.125
  Absorbance at 490 nm, Mean: 1.897
SK-HEP-1 cells; as E80, Hcy conc. 6.250
  Absorbance at 490 nm, Mean: 1.850
SK-HEP-1 cells; as E80, Hcy conc. 12.500
  Absorbance at 490 nm, Mean: 1.510
SK-HEP-1 cells; as E80, Hcy conc. 25.000
  Absorbance at 490 nm, Mean: 1.421
SK-HEP-1 cells; as E80, Hcy conc. 50.000
  Absorbance at 490 nm, Mean: 0.969
SK-HEP-1 cells; as E80, Hcy conc. 100.000
  Absorbance at 490 nm, Mean: 0.709

## O.O.O=c1c(O)c(-c2ccc(O)c(O)c2)oc2cc(O)cc(O)c12 [Quercitin, 2-(3,4-Dihydroxyphenyl)-3,5,7-trihydroxy-4H-1-benzopyran-4-one dihydrate]
Hsp32
  Hsp32 gene expression: does not inhibit
Hsp70
  Hsp70 gene expression: inhibits

## C=CC1=C(C)c2cc3[n-]c(cc4[n-]c(cc5nc(cc1n2)C(C)=C5C=C)c(C)c4CCC(=O)O)c(CCC(=O)O)c3C.[Cl-].[Cl-].[Sn+4] [Sn(IX) protoporphyrin, 8,13-Bis(vinyl)-3,7,12,17-tetramethyl-21H, 23H-porphine-2,18dipropionic acid tin(IV) dichloride]
Hsp32
  Hsp32 gene expression: inhibited
